Patent publication US7709498B2, “Quinoline derivatives as antibacterial agents” (Janssen Pharmaceutica N.V., priority 2005, dated 2010)
In brackets after ≈: the same amount, converted by molar mass. Each block holds one compound with its values, some of them ahead of it.

Columns and labels:
Assay type in all cases: cell-based
[1] = tested on: Streptococcus pneumoniae (ATCC6305); experiment: Microtitre plate assay, IC90 determination, SPN 6305; details: 90% inhibitory concentration for bacterial growth, 37° C., resazurin fluorescence; for IC90: Streptococcus pneumoniae, ATCC6305, 24 h, read-out: IC90 (μg/ml) SPN 6305; for IC90 (μg/ml) SPN 6305: 24 hours
Experimental: (§1) The bacteria used in this study were grown overnight in flasks containing 100 ml Mueller-Hinton Broth (Becton Dickinson—cat. no. 275730) in sterile de-ionized water, with shaking, at 37° C. Stocks (0.5 ml/tube) were stored at −70° C. until use. Bacteria titrations were performed in microtiter plates to detect the TCID50, in which the TCID50 represents the dilution that gives rise to bacterial growth in 50% of inoculated cultures.
(§2) In general, an inoculum level of approximately 100 TCID50 was used for susceptibility testing.
(§3) Flat-bottom, sterile 96-well plastic microtiter plates were filled with 180 μl of sterile deionized water, supplemented with 0.25% BSA. Subsequently, stock solutions (7.8× final test concentration) of compounds were added in 45 μl volumes in column 2. Serial five-fold dilutions (45 μl in 180 μl) were made directly in the microtiter plates from column 2 to reach column 11. Untreated control samples with (column 1) and without (column 12) inoculum were included in each microtiter plate. Depending on the bacteria type, approximately 10 to 60 CFU per well of bacteria inoculum (100 TCID50), in a volume of 100 μl in 2.8× Mueller-Hinton broth medium, was added to the rows A to H, except column 12. The same volume of broth medium without inoculum was added to column 12 in row A to H. The cultures were incubated at 37° C. for 24 hours under a normal atmosphere (incubator with open air valve and continuous ventilation). At the end of incubation, one day after inoculation, the bacterial growth was quantitated fluorometrically. Therefore resazurin (0.6 mg/ml) was added in a volume of 20 μl to all wells 3 hours after inoculation, and the plates were re-incubated overnight. A change in colour from blue to pink indicated the growth of bacteria. The fluorescence was read in a computer-controlled fluorometer (Cytofluor Biosearch) at an excitation wavelength of 530 nm and an emission wavelength of 590 nm. The % growth inhibition achieved by the compounds was calculated according to standard methods. The IC90 (expressed in μg/ml) was defined as the 90% inhibitory concentration for bacterial growth.
(§4) BSU 3639 means Bacillus subtilis (ATCC43639); ECO 25922 means Escherichia coli (ATCC25922); EFA 14506 means Enterococcus faecalis (ATCC14506); EFA 29212 means Enterococcus faecalis (ATCC29212); LMO 49594 means Listeria monocytogenes (ATCC49594); PAE 27853 means Pseudomonas aeruginosa (ATCC27853); SMU 33402 means Streptococcus mutans (ATCC33402); SPN 6305 means Streptococcus pneumoniae (ATCC6305); SPY 8668 means Streptococcus pyogens (ATCC8668); STA 43300 means Staphylococcus aureus (ATCC43300); STA 25923 means Staphylococcus aureus (ATCC25923); STA 29213 means Staphylococcus aureus (ATCC29213); STA RMETH means methicilline resistant Staphylococcus aureus (MRSA) (a clinical isolate from the University of Antwerp). ATCC means American type tissue culture.

[2] = tested on: Streptococcus mutans (ATCC33402); experiment: Microtitre plate assay, IC90 determination, SMU 33402; details: 90% inhibitory concentration for bacterial growth, 37° C., resazurin fluorescence; for IC90 (μg/ml) SMU 33402: 24 hours; for IC90: Streptococcus mutans, ATCC33402, 24 h, read-out: IC90 (μg/ml) SMU 33402
Experimental: as §1, §2, §3, §4

[3] = tested on: Streptococcus pyogens (ATCC8668); experiment: Microtitre plate assay, IC90 determination, SPY 8668; details: 90% inhibitory concentration for bacterial growth, 37° C., resazurin fluorescence; for IC90 (μg/ml) SPY 8668: 24 hours; for IC90: Streptococcus, ATCC8668, 24 h, read-out: IC90 (μg/ml) SPY 8668
Experimental: as §1, §2, §3, §4

[4] = tested on: Listeria monocytogenes (ATCC49594); experiment: Microtitre plate assay, IC90 determination, LMO 49594; details: 90% inhibitory concentration for bacterial growth, 37° C., resazurin fluorescence; for IC90: Listeria monocytogenes, ATCC49594, 24 h, read-out: IC90 (μg/ml) LMO 49594
Experimental: as §1, §2, §3, §4

- IC90 [1]: 13.6 µg/mL (≈ 25.1 µM)
- IC90 [4]: 10.8 µg/mL (≈ 19.9 µM)
SMILES: COc1nc2ccc(Br)cc2cc1C(c1ccccc1)C(O)(CCN(C)C)c1cccc(F)c1F (stereo not shown) [Compound 113]

- IC90 [2]: 10.1 µg/mL (≈ 15.9 µM)
SMILES: COc1nc2ccc(Br)cc2cc1C(c1ccccc1)C(O)(CCN(C)C)c1ccc2c(Br)cccc2c1 (stereo not shown) [Compound 130]

- IC90 (μg/ml) SPN 6305 [1]: 2.6 µg/mL (≈ 5.08 µM)
SMILES: COc1nc2ccc(Br)cc2cc1C(c1ccccc1)C(O)(CCN(C)C)c1cccs1 (stereo not shown) [Compound 20]

- IC90 [1]: 12.7 µg/mL (≈ 25.1 µM)
SMILES: COc1nc2ccc(Br)cc2cc1C(c1ccccc1)C(O)(CCN(C)C)c1ccccc1 (stereo not shown) [Compound 4]

- IC90 [1]: 0.5 µg/mL (≈ 0.926 µM)
- IC90 [4]: 10.8 µg/mL (≈ 20 µM)
SMILES: COc1nc2ccc(Br)cc2cc1C(c1ccccc1)C(O)(CCN(C)C)c1ccc(Cl)cc1 (stereo not shown) [Compound 17]

- IC90 (μg/ml) SPN 6305 [1]: 11.2 µg/mL (≈ 19.9 µM)
- IC90 [2]: 11.2 µg/mL (≈ 19.9 µM)
- IC90 [3]: 11.2 µg/mL (≈ 19.9 µM)
SMILES: COc1nc2ccc(Br)cc2cc1C(c1ccccc1)C(O)(CCN(C)C)c1ccc2c(c1)OCCO2 (stereo not shown) [Compound 78]

- IC90 (μg/ml) SPN 6305 [1]: 13.1 µg/mL (≈ 25 µM)
SMILES: COc1nc2ccc(Br)cc2cc1C(c1ccccc1)C(O)(CCN(C)C)c1cccc(F)c1 (stereo not shown) [Compound 108]

- IC90 [2]: 10.8 µg/mL (≈ 19.9 µM)
SMILES: COc1nc2ccc(Br)cc2cc1C(c1ccccc1)C(O)(CCN(C)C)c1ccc(F)c(F)c1 (stereo not shown) [Compound 196]

More lines, now with the values behind:

SMILES: COc1nc2ccc(Br)cc2cc1C(c1ccccc1)C(O)(CCN1CCCC1)c1ccc2ccccc2c1 (stereo not shown) [Compound 170]
- IC90 [1]: 26 µg/mL (≈ 44.7 µM)

SMILES: COc1nc2ccc(Br)cc2cc1C(c1ccccc1)C(O)(CC[N+](C)(C)[O-])c1ccccc1 (racemic) [Compound 58]
- IC90 (μg/ml) SMU 33402 [2]: 5.9 µg/mL (≈ 11.3 µM)
- IC90 (μg/ml) SPY 8668 [3]: 8.3 µg/mL (≈ 15.9 µM)

SMILES: COc1nc2ccc(Br)cc2cc1C(c1ccccc1)C(O)(CCN1CCN(C)CC1)c1cccc2ccccc12 (racemic) [Compound 149]
- IC90 (μg/ml) LMO 49594 ([4]; 24 hours): 12.2 µg/mL (≈ 20 µM)

SMILES: COc1nc2ccc(-c3ccccc3)cc2cc1C(c1ccccc1)C(O)(CCN(C)C)c1cccc2ccccc12 (stereo not shown) [Compound 84]
- IC90 [1]: 7 µg/mL (≈ 12.7 µM)
- IC90 [2]: 11 µg/mL (≈ 19.9 µM)
- IC90 [4]: 11 µg/mL (≈ 19.9 µM)
- IC90 [3]: 11 µg/mL (≈ 19.9 µM)

SMILES: COc1nc2ccc(Br)cc2cc1C(c1ccccc1)C(O)(CCN1CCCC1)c1ccc2ccccc2c1 (racemic) [Compound 171]
- IC90 (μg/ml) SPY 8668 [3]: 11.6 µg/mL (≈ 19.9 µM)

SMILES: COc1nc2ccc(Br)cc2cc1C(c1ccccc1)C(O)(CCN(C)C)c1ccc2c3c(cccc13)CC2 (stereo not shown) [Compound I]
- IC90 [1]: 11.6 µg/mL (≈ 19.9 µM)

SMILES: COc1nc2ccc(Br)cc2cc1C(c1ccccc1)C(O)(CCN1CCOCC1)c1ccc2ccccc2c1 (racemic) [Compound 140]
- IC90 (μg/ml) SMU 33402 [2]: 9.5 µg/mL (≈ 15.9 µM)

SMILES: COc1nc2ccc(Br)cc2cc1C(c1ccccc1)C(O)(CCN1CCOCC1)c1ccc2ccccc2c1 (racemic) [Compound 139]
- IC90 (μg/ml) SPN 6305 [1]: 26.7 µg/mL (≈ 44.7 µM)
- IC90 (μg/ml) SMU 33402 [2]: 18.9 µg/mL (≈ 31.6 µM)

SMILES: COc1nc2ccc(-c3ccco3)cc2cc1C(c1ccccc1)C(O)(CCN(C)C)c1cccc2ccccc12 (stereo not shown) [Compound H]
- IC90 [1]: 13.6 µg/mL (≈ 25.1 µM)
- IC90 [4]: 13.6 µg/mL (≈ 25.1 µM)

SMILES: COc1nc2cc(C)c(Br)cc2cc1C(c1ccccc1)C(O)(CCN(C)C)c1cc(F)cc(F)c1 (racemic) [Compound 227]
- IC90 (μg/ml) SPN 6305 [1]: 5.0 µg/mL (≈ 9 µM)

SMILES: COc1nc2ccc(Br)cc2cc1C(c1ccccc1)C(O)(CCN1CCCCC1)c1ccccc1 (stereo not shown) [Compound 47]
- IC90 (μg/ml) SPN 6305 [1]: 6.9 µg/mL (≈ 12.6 µM)

SMILES: COc1nc2ccccc2cc1C(c1ccccc1)C(O)(CCN(C)C)c1ccccc1 (stereo not shown) [Compound 41]
- IC90 [4]: 17 µg/mL (≈ 39.9 µM)

SMILES: COc1nc2cc(C)c(C)cc2cc1C(c1ccccc1)C(O)(CCN(C)C)c1cccc2ccccc12 (racemic) [Compound 229]
- IC90 (μg/ml) SPN 6305 [1]: 5.0 µg/mL (≈ 9.91 µM)
- IC90 (μg/ml) SMU 33402 [2]: 22.5 µg/mL (≈ 44.6 µM)

SMILES: COc1nc2ccc(Br)cc2cc1C(c1ccccc1)C(O)(CCN1CCCCC1)c1ccc2ccccc2c1 (stereo not shown) [Compound 128]
- IC90 [4]: 9.4 µg/mL (≈ 15.8 µM)

SMILES: COc1nc2ccc(Br)cc2cc1C(c1ccccc1)C(O)(CCn1cncn1)c1ccccc1 (racemic) [Compound 53]
- IC90 (μg/ml) SPN 6305 [1]: 5.9 µg/mL (≈ 11.1 µM)
